Where “and” joins values, the source holds several entries; their conditions need not be identical. Equal entries are not always repeated.
What was measured:
Stat1 = Stat1 phosphorylation in Influenza A infected FRTL-5 thyrocytes (Western blot); format: cell-based, rat
Procedure: FIG. 6. Phenylmethimazole (C10) has no effect on the ability of Poly (I:C) or LPS to increase formation of the p50/p65 heterodimer complex of […] (A), but can inhibit the Influenza A induced activation of Stat1 phosphorylation in FRTL-5 thyrocytes (B). In (A), EMSA were performed using nuclear extracts from cells which were treated with nothing (none), Poly (I:C) (100 μg/ml), LPS (100 ng/ml), in the presence of DMSO, C10, or MMI for 6 hours. Probe was the NF-κβ consensus oligonucleotide. The p65/p50 and p50/p50 complexes are indicated and were identified as in FIG. 2B by antibody inhibition or supershifts of the p50 or p65 components of the induced complexes. In (B), cells were infected with Influenza A for 24 hours and then DMSO or C10 were added to the medium for 6 hours. In each, 25 μg of nuclear extracts were used in Western blots performed to detect Stat1 PY701. Blots were then stripped and reprobed for unphosphorylated Stat1. The first lane is a non infected control (−).
Immunoprecipitation and Western Blot Analysis. Whole cell lysates were prepared in lysis buffer (10 mM Tris-HCl (pH 7.5), 150 mM NaCl, 1% NP-40) containing protease inhibitors. Nuclear extracts were prepared using the NE-PER extraction reagents with protease inhibitors stated below (Pierce Chemical Co., Rockford, Ill.). […]

IRF-1 = assay: LPS-increased IRF-1 mRNA and IRF-1 binding to MxISRE in RAW 264.7 macrophages (Northern, EMSA); format: cell-based, mouse
Text: IRF-1 is a transcription factor which is induced upon LPS stimulation of macrophages through a Stat1 dependent mechanism (Y. Ohmori, et al., J Leukoc Biol, 69:598-604 (2001)). Therefore IRF-1 provides another example of a response that may be affected by an inhibitor of LPS induced IFN-β signaling. Unlike other molecules studied thus far, IRF-1 acts as a transcription factor to directly bind to DNA to enhance transcription of other genes such as iNOS (R. Kamijo, et al., Science, 263:1612-5, (1994)). In macrophages treated with LPS, IRF-1 is required for the transcriptional control of the iNOS gene (R. Kamijo, et al., Science, 263:1612-5 (1994)). […] Typical LPS induction for each time point is observed in each LPS plus DMSO lane (FIG. 14A, lanes 2, 5, 8). […] The decrease by C10 is much greater than by MMI (FIG. 14A, lanes 6 and 9 vs 7 and 10, respectively). […] Specificity was observed upon incubation of extracts with unlabeled […] probe (FIG. 14B, lane 9). […] ID NO:23) and [NT] (469 bp) (SEQ ID NO:24); […] ID NO:25) and [NT] […] ID NO:27) and [NT] […] ID NO:29) and [NT] (586 bp) (SEQ ID NO:30). […] EMSA in RAW 264.7 cells: Nuclear extracts were prepared using NE-PER® extraction reagents (Pierce Chemical Co.; Rockford, Ill.) in the presence of a protease inhibitor cocktail (PMSF, Leupeptin, Pepstatin-A). Oligonucleotide sense strand probe sequences were as follows […] probe: [NT] […]

horses = assay: Horses operated to remove necrotic bowel; format: in vivo, horse; conditions: 2 mg/kg C10 pre-op and post-op for three days, plus antibiotics
Procedure: Effect of Phenylmethimazole (C10) on horses subjected to operative procedures to repair necrotic bowels: A group of animals were also subjected to an operative procedure that clamped vessels in a small portion of bowel. Within 2 days, bowel necrosis and peritonitis ensued. At that point animals were re-operated to remove the necrotic bowel and treated with 2 mg/kg C10 or DMSO alone pre-op and post-op for three days. […] Both groups had the same antibiotic therapy as used above.

MHC gene expression = conditions: cited from earlier work
RAW 264.7 cells = assay: LPS-induced cytokine mRNA in RAW 264.7 macrophages (real-time PCR, Northern); conditions: RAW 264.7, LPS 1 μg/mL
[1] = 1 hour, real-time PCR vs DMSO control
[2] = 3 hours, real-time PCR vs DMSO control

Cn1c(-c2ccccc2)cnc1S [Compound C10, 5-Phenylmethimazole]
virus- or IFN-β-stimulated Stat1 phosphorylation (PY701) (Stat1; FRTL-5, Influenza A 24 hours then C10 6 hours): profound inhibitor | Stat1 serine phosphorylation at residue 727 (Stat1; FRTL-5, Influenza A virus 24 hours, 1 mM C10): reduce | LPS induced IRF-1 binding to the MxISRE element (EMSA) (IRF-1; RAW 264.7, LPS 1 μg/mL 2 hours): dose dependent reduction | LPS-increased IRF-1 mRNA (IRF-1; RAW 264.7, LPS 1 μg/mL, 2 and 3 hours, Northern): strong reduction | recovery after operation to remove necrotic bowel (horses): full recovery in all cases | potency in suppressing MHC gene expression relative to MMI (MHC gene expression): 50-100 fold | reduction in LPS-increased TNF-α (RAW 264.7 cells; 1 or 6 hours, real-time PCR): no reduction | decrease in LPS-increased IFN-β gene expression (RAW 264.7 cells; [1]): 8 fold | decrease in LPS-induced IL-1β (RAW 264.7 cells; [1]): 11 fold | decrease in LPS-increased IL-6 (RAW 264.7 cells; [2]): 16 fold and > 16 fold | reduction in LPS-increased TNF-α (RAW 264.7 cells; [2]): 4 fold | reduction in LPS-induced IL-12 p40 (RAW 264.7 cells; 6 hours, real-time PCR vs DMSO control): 16 fold

— patent publication US9326972B2, “Use of phenylmethimazoles, methimazole derivatives, and tautomeric cyclic thiones for the treatment of autoimmune/inflammatory diseases associated with toll-like receptor overexpression” (Ohio University, priority 2004, dated 2016)
